Measured values published in patent publication US11859208B2, “Methods of treating cancer using cell based therapies” (Emory University, priority 2016, dated 2024).
Entries after “also recorded” stand apart in the source; their conditions may differ.

B1: IL 12: IL-12 added to T cell cultures with anti-CD3/CD28 beads (protein, UniProt P29459 23-219; P29460 23-328, looked up)
Interleukin-12 subunit alpha: RNLPVATPDPGMFPCLHHSQNLLRAVSNMLQKARQTLEFYPCTSEEIDHEDITKDKTSTVEACLPLELTKNESCLNSRETSFITNGSCLASRKTSFMMALCLSSIYEDLKMYQVEFKTMNAKLLMDPKRQIFLDQNMLAVIDELMQALNFNSETVPQKSSLEEPDFYKTKIKLCILLHAFRIRAVTIDRVMSYLNAS
Interleukin-12 subunit beta: IWELKKDVYVVELDWYPDAPGEMVVLTCDTPEEDGITWTLDQSSEVLGSGKTLTIQVKEFGDAGQYTCHKGGEVLSHSLLLLHKKEDGIWSTDILKDQKEPKNKTFLRCEAKNYSGRFTCWWLTTISTDLTFSVKSSRGSSDPQGVTCGAATLSAERVRGDNKEYEYSVECQEDSACPAAEESLPIEVMVDAVHKLKYENYTSSFFIRDIIKPDPPKNLQLKPLKNSRQVEVSWEYPDTWSTPHSYFSLTFCVQVQGKSKREKKDRVFTDKTSATVICRKNASISVRAQDRYYSSSWSEWASVPCS
B2: mast cell chymase: an enzyme that degrades endogenous VIP; human CMA1 (protein, UniProt P23946 22-247, looked up)
Chymase: IIGGTECKPHSRPYMAYLEIVTSNGPSKFCGGFLIRRNFVLTAAHCAGRSITVTLGAHNITEEEDTWQKLEVIKQFRHPKYNTSTLHHDIMLLKLKEKASLTLAVGTLPFPSQFNFVPPGRMCRVAGWGRTGVLKPGSDTLQEVKLRLMDPQACSHFRDFDHNLQLCVGNPRKTKSAFKGDSGGPLLCAGVAQGIVSYGRSDAKPPAVFTRISHYRPWINQILQAN

Key:
[1] = test system: senescent T cells from a patient with lymphoma; assay: 10 day in vitro expansion of senescent lymphoma patient T cells with anti-CD3/CD28 beads, flow cytometric analysis; format: cell-based, human; settings: for fraction of senescent T cells that lacked both CD27 and CD28: control 55.2%; for numbers of effector memory T cells (Tem): 10-day cultures; for in vitro expansion of senescent T cells: anti CD3/CD28 beads, single agents or in combination
Protocol: Monocytes were depleted from the T cell sample, as monocytes are known to inhibit T cell expansion in cultures containing anti-CD3/CD28 beads. The effect of a range of idelalisib concentrations were compared alone and in combination with 3 uM VIP peptide antagonist (VIPhyb) or 1 ug/ml mast cell chymase, an enzyme that degrades endogenous VIP on T cell activation, differentiation and proliferation. Numbers of viable T cells were measured during a 10 day in vitro cultures as well as the T cell differentiation and activation profiles, focusing on the relative numbers of T cells with a senescent phenotype in which co-stimulatory receptors CD27 and CD28 are both absent (CD27− CD28−), to an activated phenotype, in which either CD27, CD28, or both co-stimulatory receptors are present (CD27+CD28+).
Aliquots of frozen patient apheresis products or PBMC from ficolled whole blood were rapidly thawed and rested overnight in complete RPMI 1640 supplemented with 10% fetal bovine serum, 100 U/mL penicillin, 100 μg/mL streptomycin, and 50 μM 2-mercaptoethanol (complete media). The following day, red blood cells were removed from apheresis products by ficoll gradient. The leukocytes were then enriched for T cells using an EasySep human T cell enrichment kit according to manufacturer's instructions. Cells were plated in 200 μL of complete media in each well of a 96 well flat-bottom plate. Compounds were added at the indicated concentrations, and the DMSO concentration was normalized to 0.1% for all wells. Anti-CD3/CD28 beads were added at a 1:1 bead:cell ratio. On day 7 post-stimulation, cells from each treatment were transferred to new media. Fresh compounds and beads were then added, and the cells were cultured for an additional 3 days. On day 10 post-initial stimulation, the beads were removed, and the cells were stained for flow cytometric analysis.
Cells were washed twice in PBS. The cells were also stained using a fixable viability dye. Surface markers were then stained by adding fluorochrome-conjugated antibodies to CD3, CD4, CD8, CD27, CD28, CD45RA, CD45RO, PD-1, and CCR7. To assess proliferation, half the cells were evaluated for expression of Ki67. Ki67 staining was performed using a FoxP3 intracellular staining kit. Just prior to running samples, Accucheck counting beads were added to each tube. Samples were acquired on a BD FACS Aria, and analysis was performed using FlowJo software. Viable cells were used in the analysis. The absolute numbers of cells was calculated for each population according to instructions provided by the manufacturer of the Accucheck counting beads.

[2] = test system: DLBCL patient T cells; assay: DLBCL patient T cell expansion for 14 days with CD3/CD28 beads and IL-2; format: cell-based, human
[3] = test system: Bcl-2 in lymphoma patient T cells; assay: Bcl-2 expression in patient T cell expansion cultures (SDS-PAGE, membrane probing); format: cell-based, human; settings: lysates on days 7 and 14, actin loading control
Protocol: Protein lysates from patient T cell expansion cultures were prepared on days 7 and 14. Samples were run on an SDS-PAGE gel prior to transfer to a nitrocellulose membrane. The membrane was then probed for the pro-survival Bcl-2 protein, stripped, and then re-probed for actin as a loading control.

[4] = test system: E.G7-OVA cells; assay: OVA-expressing lymphoma model: adoptive transfer of T cells expanded with the compounds; format: in vivo, mouse; settings: OT-I, OT-II and B6 T cells expanded 3 days with compound, injected intravenously on day 7 of tumor growth
Protocol: Mice were injected subcutaneously with 5×10^5 E.G7-OVA cells which were allowed to grow for 7 days until a palpable tumor formed. During this period, OT-I, OT-II, and B6 T cells were expanded with CD3/CD28 beads in the presence of IL-2 and the indicated compounds for 3 days. On day 7 of tumor growth, mice were injected intravenously with a combination of expanded OT-I, OT-II, and B6 T cells (2×10^6 OT-I, 1×10^6 OT-II, and 2×10^6 B6 cells) or 2×10^6 B6 T cells as a control. Mice were then monitored for tumor growth which was calculated as (L×W2)/2.

[5] = cited from earlier work
[6] = test system: luciferase B6 splenic T cells; assay: One-way mixed lymphocyte reaction (MLR), T-cell proliferation stimulated by alloantigen; format: cell-based, mouse; settings: for T-cell proliferation in MLR: luciferase B6 splenic T cells, 3 days with irradiated FVB splenocytes, daily addition, 0-10 mmol/L
Protocol: Proliferation of luciferase B6 splenic T cells cultured for 3 days in MLR with irradiated FVB splenocytes, with daily addition of VIP and/or VIPhyb to achieve the concentrations shown (0-10 mmol/L).
To explore the role of VIP signaling in allo-immune responses, one-way mixed lymphocyte reactions (MLR) were performed containing VIP and/or the antagonistic VIPhyb peptide.

[7] = cited from earlier work; remark: listed apart in the source
[8] = test system: T-cells from the patient with relapsed lymphoma; assay: Sorted T cells of a relapsed lymphoma patient cultured with anti-CD3/anti-CD28 beads (Ki67, PD-1 flow cytometry); format: cell-based, human; settings: for T-cell proliferation in subsets lacking CD27 or CD28: sorted subsets, anti-CD3/CD28 beads
Description: Using high-speed cell sorting subsets of T-cells were isolated defined by their levels of CD27 and CD28 expression from the patient with relapsed lymphoma and a healthy control. CD3 positive T-cells with each of the four phenotypes defined by CD27 and CD28 expression were sorted and cultured in vitro in the presence of anti-CD3/anti-CD28 beads. While total T-cells from healthy donors had 100% expression of the Ki67 proliferation marker following four days of culture, the corresponding total T-cell population from the patient with anergic T-cells following treatment for lymphoma had only 90% of T-cells expressing the Ki67 marker.
Following the daily addition of 3 uM VIPhyb to these cultures, the proportion of Ki67 positive T-cells from the anergic lymphoma patient was increased to 100%. […] In contrast, the T-cell subsets lacking expression of either CD27 or CD28 or both markers had impaired proliferated response when incubated with the anti-CD3/CD28 beads.

[9] = inclusion during T cell activation

Molecule	numbers of effector memory T cells (Tem) [1]	in vitro expansion of senescent T cells [1]	frequency of CD27+CD28+ cells [2]	frequency of CD27-CD28- cells [2]	expression of Bcl-2 [3]	therapeutic efficacy of expanded mouse T cells (tumor growth) [4]	T-cell proliferation in MLR [6]	T-cell proliferation in subsets lacking CD27 or CD28 [8]	also measured
CC[C@H](Nc1ncnc2[nH]cnc12)c1nc2cccc(F)c2c(=O)n1-c1ccccc1 [idelalisib, (S)-2-(1-(9H-purin-6-ylamino)propyl)-5-fluoro-3-phenylquinazolin-4(3H)-one]	increased	significantly expanded	increases	decreasing	increased	enhances their therapeutic efficacy	–	–	fraction of senescent T cells that lacked both CD27 and CD28 ([1]; 10 nM idelalisib): 16.1%; proportion of T cells co-expressing CD27 and CD28 ([1]; idelalisib 1 uM or 100 nM, compared to control cultures with no added drug): significantly increased; number of viable T cells obtained [2, 9]: increases; proportion of naive and central memory cells [2, 9]: increases; adverse signs and symptoms in treated patients ([5]; human, in vivo): auto immune-like signs and symptoms including colitis and rash; anti-cancer responses after drug treatment has stopped ([5]; human, in vivo): continued anti-cancer responses; T-cell activation in patients with CLL ([5]; idelalisib treatment): increased T-cell activation
VIP: (SEQ ID NO: 12) HSDAVFTDNYTRLRKQMAVKKYLNSILN, endogenous polypeptide	–	–	–	–	–	–	decreased Luciferase T-cell proliferation in a dose-dependent manner	–	half-life in vivo [7]: less than two
VIPhyb: VIP receptor antagonist, hybrid peptide of neurotensin and VIP, (SEQ ID NO: 1) KPRRPYTDNYTRLRKQMAVKKYLNSILN	increased	significantly expanded	increases	decreasing	increased	enhances their therapeutic efficacy	augmented in vitro T-cell proliferation; also recorded: augmented T cell proliferation in vitro; also recorded: increased T-cell proliferation	augmented T-cell proliferation	effect on the suppression of T-cell proliferation by VIP ([6]; MLR with VIP and VIPhyb): mitigated the inhibitory effect of the native VIP peptide on T-cell proliferation; also recorded: reversed the suppressive effect of VIP in MLR; PD-1 expression ([8]; 3 uM VIPhyb, compared with control cultures without VIP antagonist): decreased levels of PD-1 expression; proportion of Ki67 positive T-cells ([8]; daily addition of 3 uM VIPhyb, total T-cells of anergic lymphoma patient, anti-CD3/anti-CD28 beads, 90% without VIPhyb): 100%; fraction of senescent T cells that lacked both CD27 and CD28 ([1]; 3 uM VIPhyb): 35.7%
B1	–	–	–	–	–	–	–	significant impact in increasing the proliferation fraction of T-cells that were CD28 negative but not those that were CD27 negative	–
B2	–	significantly expanded	–	–	–	–	–	–	fraction of senescent T cells that lacked both CD27 and CD28 ([1]; 1 μg per ml mast cell chymase): 37.4%
